Results on eleven compounds are retold here after article PMC11053681, “Gold(I) and Silver(I) Complexes Containing Hybrid Sulfonamide/Thiourea Ligands as Potential Leishmanicidal Agents” (Pharmaceutics, 2024).

“Also recorded” adds a separate entry of the source. Read-outs that look alike come from different tables or passages of the source.

One series concerns Vero cells. Kind of series: Cytotoxicity assay on Vero cells (resazurin). As to conditions: 24 h treatment. It counts as cell-based, African green monkey. As for the experimental part:
(§1) For the experiment, Vero cells (ATCC CRL-1587) were used in Roswell Parl Memorial Institute (RPMI) medium with 10% fetal bovine serum (FBS) (RPMI 10%) and 20 μg/mL of Gentamicin. They were cultivated in culture bottles of […] and kept in an oven at 37 °C with 5% carbon dioxide (CO2). When picked or used on the day of the experiment, the cells were detached from the wall of the bottles with saline and 1X trypsin/EDTA. To find out how many cells there were in the bottle, it was diluted in Turkey liquid and then we proceeded with the counting in the Neubauer Chamber to calculate the desired concentrations. The Vero cells were plated at […] cells per well, in 96-well plates, and kept in an incubator with 5% CO2 at 37 °C for 24 h. Then, the compounds were added in triplicate, starting at a concentration of 500 µM, with serial dilution being performed up to a concentration of 3.9 µM [54]. The treatment was carried out for 24 h, and, after adding 5 µL of resazurin, the fluorescence was read using a spectrofluorometer (EnSpire Perkin-Elmer, Waltham, MA, USA).

The next series relates to Leishmania braziliensis. Kind of series: Leishmanicidal activity against promastigotes (resazurin). The class given is cell-based. As to conditions: for IC50: promastigote form, 24 h treatment, resazurin, read-out: IC50 L. braziliensis; for SI L. braziliensis: selectivity index = CC50 (Vero) / IC50 (L. braziliensis promastigotes). As for the experimental part:
(§2) The Leishmania infantum and Leishmania braziliensis strains were maintained in Schneider medium supplemented with 20% of SFB (Schneider 20%), cultivated in […] bottles and stored at 28 °C in a BOD oven. For the assays, parasites at the 5th day stationary growth phase were used.
(§3) The promastigotes metacyclic form of Leishmania infantum and Leishmania braziliensis were first filtered with an insulin syringe to break up rosettes and, then, were isolated from the culture in the stationary phase by centrifugation of 400× g for 4 min at a temperature of 4 °C [53]. The supernatant was subjected to a new centrifugation, heavier, of 2000× g for 30 min, also at 4 °C. The supernatant was discarded and the cell pallet formed from this centrifugation was resuspended in 10 mL of 10% Schneider medium. The process ensured the removal of cellular debris and dead parasites, as well as possible crystals from the culture medium, so that the quality of the experiment was guaranteed. Then, the promastigotes were diluted to 1:10 in paraformaldehyde (PFA) for counting in a Neubauer Chamber, with the concentrations adjusted for each experiment.
(§4) An amount of 1 × 10^7 parasites per well was used. The parasites were plated in 96-well plates. Then, the compounds were added in triplicate, starting at a concentration of 500 µM, with serial dilutions being performed up to a concentration of 3.9 µM [53]. The treatment was carried out for 24 h and, after adding 5 µL of resazurin, the fluorescence was read using a Enspire model spectrofluorometer (Perkin-Elmer, Waltham, MA, USA).
For orientation: Resazurin is reduced to fluorescent resorufin, in cell work by metabolically active cells.

The next series has as its system Leishmania infantum. The series is described as above. The class given is cell-based. The following applies: for IC50: promastigote form, 24 h treatment, resazurin, read-out: IC50 L. infantum; for SI L. infantum: selectivity index = CC50 (Vero) / IC50 (L. infantum promastigotes). As for the experimental part:
as §2, §3, §4

Series [1] deals with RAW macrophages infected with Leishmania infantum. The series can be described thus: Infectivity test / infection rate in RAW macrophages. It counts as cell-based. The following applies: three concentrations (below IC50, IC50, above IC50), 24 h treatment. How it is done: For the infection of RAW macrophages adhered to the plates, we used parasites in the promastigote form of Leishmania infantum, in the stationary phase, in a ratio of 10:1 (promastigotes/macrophages).
Macrophages were plated in the amount of 5 × 10^4 cells per well, in 96-well plates, which were kept in a CO2 oven at 37 °C for 24 h. The parasites were plated at a concentration of 10:1. The plates were kept in a CO2 oven for 12 h until the parasites infected the cells. […] Plates were fixed with paraformol for further evaluation. Plaques were evaluated by counting parasites within 200 cells under the EVOS Cell Imaging System (Thermo Scientific, Waltham, MA, USA) microscope by staining with propidium iodide.
In view of the data obtained, the six most promising compounds (HL1^Ch, HL2^Ph, Ag3, Ag4, Ag6 and Au2) were selected for carrying out the infection rate test against the L. infantum parasite. […] This test was performed at four stages. The first step determined the percentage of the amount in 200 infected macrophages per parasite, the second determined the percentage of parasites that infects 100 cells/macrophages, the third determined the average percentage of parasites that infects 200 cells/macrophages and, finally, the fourth step indicated the infection rate, that is, the result of the amount of Leishmania per macrophage (obtained from the third step) multiplied by the percentage of infected macrophages. Figure 5 presents the graphs of the infection rates, while the other graphs can be found in Figure S7.4.

A short description of series [2]: Solubility in buffer for the fluorescence experiments. It counts as physicochemical. As to conditions: Tris-HCl buffer. As for the experimental part:
The compounds were solubilized in DMSO and then we made successive dilutions in a Tris-HCl 25 mmol L^−1 buffer, pH 8.0, containing 100 mmol L^−1 of NaCl. For all experiments, the final concentration of DMSO was kept constant and equal to 2.5%. Solutions with increasing concentrations of ligand and constant concentration of LbOYE (1 µmol L^−1) were prepared, which were kept at 25 °C for a period of 1h before acquisition of fluorescence emission spectra.
After the synthesis and structural characterization of the compounds, studies of interaction of the compounds and the recombinant LbOYE were carried out by fluorescence measurements.

The nature of series [3]: Cytotoxicity assay on Vero cells (resazurin). The class given is cell-based, African green monkey. The following applies: African green monkey, Vero cells (ATCC CRL-1587), 24 h treatment. How it is done:
as §1

By CC50 is commonly meant the concentration that lowers cell viability or growth by half. As usually defined, the IC50 is the concentration that inhibits the measured activity by half. In the series on Vero cells, `Cc1ccc(S(=O)(=O)NNC(NC2CCCCC2)=[S][Ag+][S]=C(NNS(=O)(=O)c2ccc(C)cc2)NC2CCCCC2)cc1.O=[N+]([O-])[O-]` [Ag1, [Ag(HL1^Ch)2]NO3] yielded a CC50 of 7.4 µM. Moreover, in the series with Leishmania braziliensis, the IC50 came to 50.15 ± 0.02 µM and the “SI L. braziliensis” value came to 0.15. In the series with Leishmania infantum, the IC50 stood at 57.42 ± 0.028 µM and the “SI L. infantum” value is listed as 0.129.
In the series with Vero cells, `Cc1ccc(S(=O)(=O)NNC(Nc2ccccc2)=[S][Ag+][S]=C(NNS(=O)(=O)c2ccc(C)cc2)Nc2ccccc2)cc1.O=[N+]([O-])[O-]` [Ag2, [Ag(HL2^Ph)2]NO3] registered a CC50 of 92.1 µM. Also, in the series on Leishmania braziliensis, the IC50 turned out to be 183.7 ± 0.027 µM and the “SI L. braziliensis” value worked out at 0.50. In the series on Leishmania infantum, the IC50 came to 280.5 ± 0.167 µM and the “SI L. infantum” value worked out at 0.33.
The compound `Cc1ccc(S(=O)(=O)NNC(Nc2ccc(Cl)cc2)=[S][Ag+][S]=C(NNS(=O)(=O)c2ccc(C)cc2)Nc2ccc(Cl)cc2)cc1.O=[N+]([O-])[O-]` [Ag4, [Ag(HL4^ClPh)2]NO3] registered a 50% cytotoxic concentration (CC50) in the series on Vero cells of more than 500 µM. In the series on Leishmania braziliensis, the IC50 turned out to be 84.62 ± 0.116 µM and the “SI L. braziliensis” value was more than 5.91. The IC50 in the series with Leishmania infantum was 72.17 ± 0.036 µM. The “Infection rate of L. infantum in macrophages, in words” value (“Infection rate of L. infantum” for short) in series [1] is listed as “did not show a promising infection rate”.
The compound `Cc1ccc(S(=O)(=O)NNC(Nc2ccc([N+](=O)[O-])cc2)=[S][Ag+][S]=C(NNS(=O)(=O)c2ccc(C)cc2)Nc2ccc([N+](=O)[O-])cc2)cc1.O=[N+]([O-])[O-]` [Ag5, [Ag(HL5^NO2Ph)2]NO3] had a CC50 in the series on Vero cells of 493 µM. In addition, the IC50 came to 90.73 ± 0.236 µM in the series with Leishmania braziliensis and 78.79 ± 0.091 µM with Leishmania infantum. In addition, the “SI L. braziliensis” value in the series on Leishmania braziliensis was 5.44.
`C=CCNC(NNS(=O)(=O)c1ccc(C)cc1)=[S][Ag+][S]=C(NCC=C)NNS(=O)(=O)c1ccc(C)cc1.O=[N+]([O-])[O-]` [Ag6, [Ag(HL6^Al)2]NO3] returned a CC50 in the series with Vero cells of more than 500 µM. In the series with Leishmania braziliensis, the IC50 came out at 305.2 ± 0.032 µM and the “SI L. braziliensis” value is recorded as more than 1.64. Moreover, in the series on Leishmania infantum, the IC50 stood at 78.59 ± 0.605 µM and the “SI L. infantum” value was more than 6.36. Besides, the “Infection rate of L. infantum” value in series [1] is “able to inhibit the parasite infection inside the cells even at lower concentrations than that determined by their IC50 values; also recorded: able to inhibit the parasite infection even at lower concentrations than that of their IC50 values”. The “Solubility in buffer at the concentrations for the fluorescence experiments, in words” value (“Solubility in buffer” below) in series [2] is on record as “not soluble in the buffer used for the experiment”.
The compound `Cc1ccc(S(=O)(=O)NNC(Nc2ccccc2)=[S][Au+][S]=C(NNS(=O)(=O)c2ccc(C)cc2)Nc2ccccc2)cc1.[Cl-]` [Au2, [Au(HL2^Ph)2]Cl] came in with a CC50 with Vero cells of 296 µM. Moreover, in the series on Leishmania braziliensis, the IC50 was found to be 143.2 ± 0.085 µM and the “SI L. braziliensis” value is on record as 2.06. In the series on Leishmania infantum, the IC50 came out at 41.69 ± 0.21 µM and the “SI L. infantum” value worked out at 7.09. In series [1], the “Infection rate of L. infantum” value is recorded as “able to inhibit the parasite infection inside the cells even at lower concentrations than that determined by their IC50 values; also recorded: able to inhibit the parasite infection even at lower concentrations than that of their IC50 values”.
As to `Cc1ccc(S(=O)(=O)NNC(Nc2ccc(F)cc2)=[S][Au+][S]=C(NNS(=O)(=O)c2ccc(C)cc2)Nc2ccc(F)cc2)cc1.[Cl-]` [Au3, [Au(HL3^FPh)2]Cl], half-maximal cytotoxicity in the series on Vero cells (CC50) was put at 28.8 µM. In addition, in the series on Leishmania braziliensis, the IC50 was determined as 194.9 ± 0.063 µM and the “SI L. braziliensis” value is listed as 0.15. In the series with Leishmania infantum, the IC50 stood at 173.9 ± 0.087 µM and the “SI L. infantum” value was 0.17.
The compound `Cc1ccc(S(=O)(=O)NNC(Nc2ccc([N+](=O)[O-])cc2)=[S][Au+][S]=C(NNS(=O)(=O)c2ccc(C)cc2)Nc2ccc([N+](=O)[O-])cc2)cc1.[Cl-]` [Au5, [Au(HL5^NO2Ph)2]Cl] had a CC50 with Vero cells of 58.6 µM. In addition, in the series on Leishmania braziliensis, the IC50 was 284 ± 0.259 µM and the “SI L. braziliensis” value is 0.21. In the series with Leishmania infantum, the IC50 came out at 295.5 ± 0.259 µM and the “SI L. infantum” value turned out to be 0.198.
`C=CCNC(NNS(=O)(=O)c1ccc(C)cc1)=[S][Au+][S]=C(NCC=C)NNS(=O)(=O)c1ccc(C)cc1.[Cl-]` [Au6, [Au(HL6^Al)2]Cl] had a CC50 in the series with Vero cells of 77.5 µM. Besides, in the series on Leishmania braziliensis, the IC50 came out at 5554 ± 1.37 µM and the “SI L. braziliensis” value stood at 0.01. Besides, in the series with Leishmania infantum, the IC50 was 62.54 ± 0.151 µM and the “SI L. infantum” value worked out at 1.24. Besides, in series [2], the “Solubility in buffer” value is “not soluble in the buffer used for the experiment”.
Consider `Cc1ccc(S(=O)(=O)NNC(=S)Nc2ccc(Cl)cc2)cc1` [HL4^ClPh, N-(4-chlorophenyl)-2-tosylhydrazinocarbothioamide], for which the midpoint of cytotoxicity in series [3], the CC50 at 24 h, lay at 16.8 µM. Besides, the IC50 was 133.8 ± 0.036 µM in the series on Leishmania braziliensis (Leishmania braziliensis) and 108.4 ± 0.104 µM with Leishmania infantum (Leishmania infantum). Further, the “SI L. braziliensis” value with Leishmania braziliensis amounted to 0.13. Further, in the series with Leishmania infantum, the “SI L. infantum” value is given as 0.16.
As for `C=CCNC(=S)NNS(=O)(=O)c1ccc(C)cc1` [HL6^Al, N-allyl-2-tosylhydrazinocarbothioamide], the midpoint of cytotoxicity in series [3], the CC50 at 24 h, lay at 188 µM. In addition, the IC50 in the series with Leishmania braziliensis (Leishmania braziliensis) amounted to 313.5 ± 0.063 µM; in the series with Leishmania infantum (Leishmania infantum) it was 812.8 ± 0.515 µM. Besides, the “SI L. braziliensis” value in the series on Leishmania braziliensis came out at 0.60. In the series on Leishmania infantum, the “SI L. infantum” value is given as 0.23. Further, in series [2], the “Solubility in buffer” value is “not soluble in the buffer used for the experiment”.
